Measurements: US4661603A, “Imidazole derivatives” (Yoshitomi Pharmaceutical Industries, Ltd., priority 1982, dated 1987)

Key:
platelet aggregation = experiment: Inhibitory activities on platelet aggregation (ex vivo, arachidonic acid, after oral administration to rabbits); format: in vivo, rabbit; conditions: Oryctolagus cuniculus, 1 h, blood one hour after administration, read-out: Inhibitory activities on platelet aggregation, Rate of inhibition
Procedure: According to the method described in Journal of Physiology, vol. 162, page 67 (1962), the inhibitory activities of compounds of this invention on platelet aggregation were measured from the changes in transmittance with an aggregometer (Rikadenki Electronics Co., Japan).
Before and one hour after the oral administration of test compounds to rabbits, blood was collected. The blood was mixed with sodium citrate in the ratio of 9:1 by volume. Platelet rich plasma (PRP) was prepared by centrifuging the citrated blood at 1000 rpm for 10 minutes, and platelet poor plasma (PPP), by centrifuging the remaining citrated blood at 3000 rpm for 10 minutes.
The transmittance of aggregometer was adjusted to 0 and 100% with PRP and PPP, respectively. To 0.3 ml of a PRP sample was added 0.003 ml of arachidonic acid solution. The changes in transmittance of the mixture were measured using the aggregometer with stirring at 1200 rpm.
Inhibitory activities on platelet aggregation were assessed as % inhibition by comparing the rate of aggregation of treated PRP with that of blood collected before the oral administration of test compounds.

thromboxane synthetase = biological target: T1, thromboxane synthetase (Homo sapiens, UniProt P24557); experiment: Inhibitory effect on thromboxane synthetase; format: biochemical; conditions: in vitro; human platelet microsomes; 4.3 μM 14C-arachidonic acid, 25° C., 5 minutes; read-out: Inhibitory effect on thromboxane synthetase (50% inhibitory molar concentration)
T1 construct: incubating human platelet microsomes; from tissue; host or cells: human platelet microsomes
T1 sequence (P24557 1-533): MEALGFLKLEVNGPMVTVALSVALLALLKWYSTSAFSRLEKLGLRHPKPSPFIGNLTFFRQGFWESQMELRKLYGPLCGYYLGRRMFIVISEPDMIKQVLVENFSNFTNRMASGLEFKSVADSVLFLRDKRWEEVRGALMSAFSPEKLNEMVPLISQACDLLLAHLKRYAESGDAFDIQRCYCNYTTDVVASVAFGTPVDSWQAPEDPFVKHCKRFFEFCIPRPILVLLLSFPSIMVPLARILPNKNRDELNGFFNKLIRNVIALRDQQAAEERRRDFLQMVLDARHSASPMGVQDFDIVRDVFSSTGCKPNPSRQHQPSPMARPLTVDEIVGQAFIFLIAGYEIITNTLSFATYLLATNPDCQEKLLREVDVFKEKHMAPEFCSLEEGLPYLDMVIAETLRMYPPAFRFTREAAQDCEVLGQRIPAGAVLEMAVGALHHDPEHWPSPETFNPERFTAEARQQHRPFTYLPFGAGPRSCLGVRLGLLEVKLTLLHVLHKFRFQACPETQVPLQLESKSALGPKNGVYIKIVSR
Procedure: (§1) Effects of test compounds on thromboxane synthetase, cyclo-oxygenase and prostacyclin synthetase were examined in vitro by the following methods:
According to the method described in Journal of Biological Chemistry, vol. 252, page 5871 (1977), thromboxane was produced by incubating human platelet microsomes with 4.3 μM ^14 C-arachidonic acid at 25° C. for 5 minutes. Since thromboxane A2 is extremely short-lived, thromboxane B2, which is a stable degradation product of thromboxane A2, was assayed. The incubation mixture was extracted with ethyl acetate, and thromboxane B2 was separated on a thin-layer chromatogram. The zone of thromboxane B2 on a silica gel plate was detected with a radiochromatoscanner and scraped off. The radioactivities were determined with a liquid scintilation counter.
The inhibitory activities of test compounds on thromboxane synthetase were assessed by comparing the contents of thromboxane formed in the presence and the absence of test compounds.

cyclo-oxygenase = biological target: T2, cyclo-oxygenase (Bos taurus, UniProt O62664); experiment: Inhibitory effect on cyclo-oxygenase; format: biochemical; conditions: in vitro; bovine seminal vesicle microsomes; 104.3 μM 14C-arachidonic acid, 25° C., 10 minutes; read-out: Inhibitory effect on cyclo-oxygenase (50% inhibitory molar concentration)
T2 construct: bovine seminal vesicle microsomes; from tissue; host or cells: bovine seminal vesicle microsomes
T2 sequence (O62664 25-600): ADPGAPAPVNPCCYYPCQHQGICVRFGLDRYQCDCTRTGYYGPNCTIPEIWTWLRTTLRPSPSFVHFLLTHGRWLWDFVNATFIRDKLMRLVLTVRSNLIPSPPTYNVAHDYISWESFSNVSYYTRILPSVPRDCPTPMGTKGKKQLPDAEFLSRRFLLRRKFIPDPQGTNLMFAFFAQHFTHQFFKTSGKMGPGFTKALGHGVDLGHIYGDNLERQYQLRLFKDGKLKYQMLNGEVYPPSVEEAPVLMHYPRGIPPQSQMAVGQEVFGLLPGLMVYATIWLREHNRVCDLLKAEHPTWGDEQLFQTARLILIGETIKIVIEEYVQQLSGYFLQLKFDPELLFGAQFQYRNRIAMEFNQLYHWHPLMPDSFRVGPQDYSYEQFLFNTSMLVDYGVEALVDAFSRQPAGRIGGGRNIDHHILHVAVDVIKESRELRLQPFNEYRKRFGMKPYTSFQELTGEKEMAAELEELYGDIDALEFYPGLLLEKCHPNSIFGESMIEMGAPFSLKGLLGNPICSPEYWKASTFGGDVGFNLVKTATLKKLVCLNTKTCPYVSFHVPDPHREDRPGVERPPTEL
Procedure: as §1
According to the method described in Proceedings of National Academy of Sciences, U.S.A., vol. 71, page 3645 (1974), bovine seminal vesicle microsomes were incubated with 104.3 μM ^14 C-arachidonic acid at 25° C. for 10 minutes. Prostaglandin E2 thus formed was separated and assayed using the same method as (a).
The inhibitory activities of test compounds on cyclo-oxygenase were assessed by comparing the contents of prostaglandin E2 formed in the presence and absence of test compounds.

prostacyclin synthetase = biological target: T3, prostacyclin synthetase (Rattus norvegicus, UniProt Q62969); experiment: Inhibitory effect on prostacyclin synthetase; format: biochemical; conditions: in vitro; rat aorta ring; 1.7 μM 14C-arachidonic acid, 37° C., 20 minutes; read-out: Inhibitory effect on prostacyclin synthetase (50% inhibitory molar concentration)
T3 construct: incubating the rat arota ring; from tissue; host or cells: rat aorta ring
T3 sequence (Q62969 1-501): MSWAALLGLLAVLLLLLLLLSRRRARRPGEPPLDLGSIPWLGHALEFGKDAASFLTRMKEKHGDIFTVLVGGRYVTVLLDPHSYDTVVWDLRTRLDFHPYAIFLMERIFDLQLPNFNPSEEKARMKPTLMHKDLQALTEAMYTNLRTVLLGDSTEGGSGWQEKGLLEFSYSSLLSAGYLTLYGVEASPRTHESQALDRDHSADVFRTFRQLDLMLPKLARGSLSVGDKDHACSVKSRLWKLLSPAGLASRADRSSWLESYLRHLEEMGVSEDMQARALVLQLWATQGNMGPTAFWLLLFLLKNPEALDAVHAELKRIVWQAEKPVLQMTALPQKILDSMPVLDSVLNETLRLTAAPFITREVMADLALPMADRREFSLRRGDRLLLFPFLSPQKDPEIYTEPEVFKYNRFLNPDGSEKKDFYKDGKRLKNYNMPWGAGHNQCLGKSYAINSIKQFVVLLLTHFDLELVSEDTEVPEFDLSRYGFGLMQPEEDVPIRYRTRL
Procedure: as §1
According to the method described in Journal of Pharmacology and Experimental Therapeutics, vol. 215, page 240 (1980), prostacyclin was formed by incubating the rat arota ring with 1.7 μM ^14 C-arachidonic acid at 37° C. for 20 minutes. Since prostacyclin is extremely short-lived, 6-keto-prostaglandin F1α, which is a stable degradation product of prostacyclin, was separated and assayed using the same method as (a).
The inhibitory activities of test compounds on prostacyclin synthetase were assessed by comparing the contents of 6-keto-prostaglandin F1α formed in the presence and the absence of test compounds.

[1] = Acute toxicity (oral LD50); conditions: rat, in vivo, p.o., six male Wistar rats
Procedure: According to the method described in Journal of Pharmacological and Experimental Therapeutics, vol. 96, page 99 (1949), the test compounds were orally administered to a group consisting of six male Wistar rats. The 50% lethal doses (LD50, mg/kg) were determined.

| Compound | inhibition at 10 mg/kg (platelet aggregation) [%] | IC50 (thromboxane synthetase) [µM] | IC50 (cyclo-oxygenase) [µM] | IC50 (prostacyclin synthetase) [µM] | LD50 [1] [mg/kg] |
| --- | --- | --- | --- | --- | --- |
| COC(=O)c1cc(C)c(C(O)c2cc(-n3ccnc3)ccc2C)c(C)c1 (stereo not drawn) [α-(2,6-dimethyl-4-methoxycarbonylphenyl)-2-methyl-5-(1-imidazolyl)benzenemethanol] | 100 | 0.7 | > 100 | > 100 | > 1000 |
| Cc1cc(C)c(C(O)c2cc(-n3ccnc3)ccc2Cl)c(C)c1 (stereo not drawn) [α-(2,4,6-trimethylphenyl)-2-chloro-5-(1-imidazolyl) benzenemethanol] | 71 | 2.3 | > 1000 | > 1000 | > 1000 |
| Cc1cc(C)c(C(O)c2cc(-n3ccnc3)ccc2C)c(C)c1 (stereo not drawn) [α-(2,4,6-trimethylphenyl)-2-methyl-5-(1-imidazolyl)benzenemethanol] | 100 | 0.82 |  |  | > 1000 |
| Cc1cc(C)c(C(O)c2ccc(-n3ccnc3)c(Cl)c2)c(C)c1 (stereo not drawn) [α-(2,4,6-trimethylphenyl)-3-chloro-4-(1-imidazolyl)benzenemethanol] | 80 | 0.18 | > 100 | > 100 | > 1000 |
| Cc1cc(C)c(C(O)c2cccc(-n3ccnc3)c2C)c(C)c1 (stereo not drawn) [α-(2,4,6-Trimethylphenyl)-2-methyl-3-(1-imidazolyl)benzenemethanol] | 68 |  |  |  | > 1000 |
| CCOC(=O)c1cc(C)c(C(O)c2cc(-n3ccnc3)ccc2C)c(C)c1 (stereo not drawn) [α-(2,6-dimethyl-4-ethoxycarbonylphenyl)-2-methyl-5-(1-imidazolyl)benzenemethanol] | 100 |  | > 100 | > 100 | > 1000 |
| Cc1cc(C)c(C(O)c2cccc(-n3ccnc3)c2)c(C)c1 (stereo not drawn) [α-(2,4,6-trimethylphenyl)-3-(1-imidazolyl)benzenemethanol] | 100 | 0.34 | > 1000 | > 100 | > 1000 |
| Cc1cc(C)c(C(O)c2ccc(C)c(-n3ccnc3)c2)c(C)c1 (stereo not drawn) [α-(2,4,6-Trimethylphenyl)-4-methyl-3-(1-imidazolyl)benzenemethanol] | 88 |  |  |  | > 1000 |
| Cc1ccc(-n2ccnc2)cc1C(O)c1c(C)cc(C(=O)O)cc1C (stereo not drawn) [α-(2,6-dimethyl-4-carboxyphenyl)-2-methyl-5-(1-imidazolyl)benzenemethanol] | 100 | 0.022 | > 100 | > 100 | > 1000 |
| Cc1ccc(-n2ccnc2)cc1C(O)c1c(C)cc(C(=O)OC(C)C)cc1C (stereo not drawn) [α-(2,6-dimethyl-4-isopropoxycarbonylphenyl)-2-methyl-5-(1-imidazolyl)benzenemethanol] | 76 |  | > 100 | > 100 | > 1000 |
| Cc1cc(C(=O)O)cc(C)c1C(O)c1cc(-n2ccnc2)ccc1Cl (stereo not drawn) [α-(2,6-dimethyl-4-carboxyphenyl)-2-chloro-5-(1-imidazolyl)benzenemethanol] | 100 | 0.052 | > 100 | > 100 | > 1000 |
